Target: T1, USP25 (USP25-His6) (Homo sapiens, UniProt Q9UHP3)
T1 construct: His6 (C); purchased Boston Biochem E-546
T1 sequence (Q9UHP3 1-1055): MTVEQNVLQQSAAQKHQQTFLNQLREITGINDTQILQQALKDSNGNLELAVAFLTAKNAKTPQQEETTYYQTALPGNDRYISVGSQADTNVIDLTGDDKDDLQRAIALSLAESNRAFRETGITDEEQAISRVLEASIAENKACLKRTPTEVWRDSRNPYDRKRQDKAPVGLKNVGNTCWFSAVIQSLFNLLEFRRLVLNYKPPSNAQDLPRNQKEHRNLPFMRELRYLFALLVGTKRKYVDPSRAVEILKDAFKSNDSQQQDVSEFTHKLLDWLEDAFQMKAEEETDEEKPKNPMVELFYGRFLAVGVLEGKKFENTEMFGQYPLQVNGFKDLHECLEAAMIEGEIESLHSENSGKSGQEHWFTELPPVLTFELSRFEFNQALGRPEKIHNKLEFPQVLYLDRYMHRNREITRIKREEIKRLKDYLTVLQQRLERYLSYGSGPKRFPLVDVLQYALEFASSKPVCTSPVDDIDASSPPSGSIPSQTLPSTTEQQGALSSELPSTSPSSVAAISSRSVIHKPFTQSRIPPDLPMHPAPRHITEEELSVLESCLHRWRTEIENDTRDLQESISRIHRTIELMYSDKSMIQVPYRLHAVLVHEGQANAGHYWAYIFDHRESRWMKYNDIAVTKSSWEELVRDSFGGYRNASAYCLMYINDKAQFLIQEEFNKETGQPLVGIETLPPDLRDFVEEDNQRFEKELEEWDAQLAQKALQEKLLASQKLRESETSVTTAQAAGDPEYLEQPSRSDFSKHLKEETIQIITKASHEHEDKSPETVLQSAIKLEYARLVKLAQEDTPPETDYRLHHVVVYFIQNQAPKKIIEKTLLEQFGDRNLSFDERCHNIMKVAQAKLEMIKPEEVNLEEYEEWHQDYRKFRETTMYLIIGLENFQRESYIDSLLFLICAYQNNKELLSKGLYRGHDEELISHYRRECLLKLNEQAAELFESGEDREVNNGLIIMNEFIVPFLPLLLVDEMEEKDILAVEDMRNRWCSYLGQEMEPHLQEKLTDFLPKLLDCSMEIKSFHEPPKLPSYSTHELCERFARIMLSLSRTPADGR
Assay: Ubiquitin-Rhodamine 110 Assay for USP25 Activity, Example A-2
Assay type: biochemical
Details: USP25, 75 pM enzyme, 25 nM Ub-Rh110, 30 min preincubation; read-out: Assay A-2 (IC50 range)
Experimental: The assay was performed in a final volume of 9 μL in assay buffer containing 20 mM Tris-HCl (pH 8.0, (1M Tris-HCl, pH 8.0 solution; Corning 46-031-CM)), 3 mM BME (2-Mercaptoethanol; Sigma 63689-25ML-F), 0.03% BGG (0.22 μM filtered, Sigma, G7516-25G), and 0.01% Triton X-100 (Sigma, T9284-10L). Nanoliter quantities of 10-point, 3-fold serial dilution in DMSO was pre-dispensed into 1536 assay plates (Corning, #3724BC) for a final test concentration of 25 μM to 1.3 nM, top to lowest dose, respectively. Enzyme USP25, construct USP25-His6, (Boston Biochem E-546). Concentration and incubation times were optimized for the maximal signal-to-background while maintaining initial velocity conditions at a fixed substrate concentration. The final concentration of the enzyme in the assay was 75 pM. Final substrate (Ub-Rh110; Ubiquitin-Rhodamine 110, R&D Systems #U-555) concentration was 25 nM with [Ub-Rh110]<<Km. 3 μL of 2× enzyme was added to assay plates (pre-stamped with compound) preincubated with […] for 30 minutes and then 3 μL of 2×Ub-Rh110 was added to assay plates. Plates were incubated for 45 minutes at room temperature before addition of 3 μL of stop solution (final concentration of 10 mM citric acid (Sigma, 251275-500G)). Fluorescence was read on the Envision (Excitation at 485 nm and Emission at 535 nm; Perkin Elmer) or on the PheraSTAR (Excitation at 485 nm and Emission at 535 nm; BMG Labtech).
For assay formats Examples A-1a, A-1b, and A-2, data were reported as percent inhibition compared with control wells based on the following equation: % inh=1−((FLU−AveLow)/(AveHigh−AveLow)) where FLU=measured Fluorescence, AveLow=average Fluorescence of no enzyme control (n=16), and AveHigh=average Fluorescence of DMSO control (n=16). IC50 values were determined by curve fitting of the standard 4 parameter logistic fitting algorithm included in the Activity Base software package: IDBS XE Designer Model205. Data is fitted using the Levenburg Marquardt algorithm.

SMILES	IC50 [nM]
CCn1ccc2cc(C(=O)NCCc3ccc(N4CC5CCC(C4)N5)cc3)cnc21 [Example 1-6, N-(4-(3,8-diazabicyclo[3.2.1]octan-3-yl)phenethyl)-1-ethyl-1H-pyrrolo[2,3-b]pyridine-5-carboxamide]	50 to 200
O=C(NCCc1ccc(N2CCNCC2)cc1)c1cnc2[nH]ccc2c1 [Example 1-2, N-(4-(piperazin-1-yl)phenethyl)-1H-pyrrolo[2,3-b]pyridine-5-carboxamide]	200 to 2000
Nc1c(C(=O)NCCc2ccc(N3CCNCC3)cc2)cnc2[nH]ccc12 [Example 1-5, 4-amino-N-(4-(piperazin-1-yl)phenethyl)-1H-pyrrolo[2,3-b]pyridine-5-carboxamide]	2000 to 10000
CCn1ccc2cc(C(=O)NC[C@H](C)c3cc(F)c(N4CCNCC4)cc3F)cnc21 (single isomer, unassigned) [Example 2-2]	2000 to 10000
CC(C)(O)Cn1ccc2cc(C(=O)NCCc3cc(F)c(N4CC5CCC(C4)N5)cc3F)cnc21 [Example 1-9, N-(4-(3,8-diazabicyclo[3.2.1]octan-3-yl)-2,5-difluorophenethyl)-1-(2-hydroxy-2-methylpropyl)-1H-pyrrolo[2,3-b]pyridine-5-carboxamide]	> 10000
CCn1ccc2cc(C(=O)NC[C@@H](C)c3cc(F)c(N4CC5CCC(C4)N5)cc3F)cnc21 (single isomer, unassigned) [Example 2-4]	200 to 2000
CCn1ccc2cc(C(=O)NCCc3ccc(N4CC5CCC(C4)N5)c(F)c3)cnc21 [Example 1-10, N-(4-(3,8-diazabicyclo[3.2.1]octan-3-yl)-3-fluorophenethyl)-1-ethyl-1H-pyrrolo[2,3-b]pyridine-5-carboxamide]	200 to 2000
CCn1ccc2cc(C(=O)NC[C@@H](C)c3cc(F)c(N4CC5CCC(C4)N5)cc3F)nnc21 (single isomer, unassigned) [Example 4-3]	200 to 2000
CCn1ccc2cc(C(=O)NC[C@H](C)c3cc(F)c(N4CC5CCC(C4)N5)cc3F)nnc21 (single isomer, unassigned) [Example 4-2]	200 to 2000
Cn1ccc2cc(C(=O)NCCc3ccc(N4CCNCC4)cc3)cnc21 [Example 1-3, 1-methyl-N-(4-(piperazin-1-yl)phenethyl)-1H-pyrrolo[2,3-b]pyridine-5-carboxamide]	200 to 2000
CCn1cc(Cl)c2cc(C(=O)NCCc3cc(F)c(N4CC5CCC(C4)N5)cc3F)nnc21 [Example 4-4, N-(4-(3,8-diazabicyclo[3.2.1]octan-3-yl)-2,5-difluorophenethyl)-5-chloro-7-ethyl-7H-pyrrolo[2,3-c]pyridazine-3-carboxamide]	50 to 200
CCn1ccc2cc(C(=O)NCCc3ccc(N4CCNCC4)cc3)cnc21 [Example 1-4, 1-ethyl-N-(4-(piperazin-1-yl)phenethyl)-1H-pyrrolo[2,3-b]pyridine-5-carboxamide]	200 to 2000
CCn1cc(Cl)c2cc(C(=O)NCCc3ccc(N4CCNCC4)cc3)cnc21 [Example 3-1, 3-Chloro-1-ethyl-N-[2-[4-(piperazin-1-yl)phenyl]ethyl]-1H-pyrrolo[2,3-b]pyridine-5-carboxamide]	50 to 200
CCn1ccc2cc(C(=O)NCCc3cc(F)c(N4CC5CCC(C4)N5)cc3F)cnc21 [Example 1-1, N-[2-(4-[3,8-diazabicyclo[3.2.1]octan-3-yl]-2,5-difluorophenyl)ethyl]-1-ethyl-1H-pyrrolo[2,3-b]pyridine-5-carboxamide]	50 to 200
CCn1ccc2cc(C(=O)NCCc3cc(F)c(N4CC5CCC(C4)N5)cc3F)nnc21 [Example 4-1, N-[2-(4-[3,8-diazabicyclo[3.2.1]octan-3-yl]-2,5-difluorophenyl)ethyl]-7-ethyl-7H-pyrrolo[2,3-c]pyridazine-3-carboxamide]	200 to 2000
O=C(NCCc1ccc(N2CCNCC2)cc1)c1cnc2[nH]cc(Cl)c2c1 [Example 3-2, 3-chloro-N-(4-(piperazin-1-yl)phenethyl)-1H-pyrrolo[2,3-b]pyridine-5-carboxamide]	2000 to 10000
CCn1ccc2cc(C(=O)NC[C@H](C)c3cc(F)c(N4CC5CCC(C4)N5)cc3F)cnc21 (single isomer, unassigned) [Example 2-3]	200 to 2000
CCn1ccc2cc(C(=O)NCCc3cc(F)c(N4CCNCC4)cc3F)cnc21 [Example 1-7, N-(2,5-difluoro-4-(piperazin-1-yl)phenethyl)-1-ethyl-1H-pyrrolo[2,3-b]pyridine-5-carboxamide]	200 to 2000
O=C(NCCc1ccc(N2CCNCC2)cc1)c1cnc2c(ccn2CC(F)(F)F)c1 [Example 1-8]	50 to 200
CCn1ccc2cc(C(=O)NC[C@@H](C)c3cc(F)c(N4CCNCC4)cc3F)cnc21 (single isomer, unassigned) [Example 2-1]	200 to 2000

Reference: US12252490B2, “Inhibiting deubiquitinase USP25 and USP28” (Valo Health, Inc., priority 2018, dated 2025)
